The text below walks through data of US6958359B1, “Vanadium compounds as anti-angiogenic agents” (Parker Hughes Institute, priority 2000, dated 2005).

Experiment [1] has as its system BT-20 breast cancer cells. Description: Immunocytochemistry and confocal microscopic analysis of mitotic spindles. The class given is cell-based, human. The conditions noted are these: BT-20 cells, α-tubulin and DNA staining, confocal laser scanning microscopy. On the procedure: At the appropriate time points coverslips containing BT-20 cells were fixed in−20° C. methanol for 15 minutes followed by 15 minutes incubation in phosphate buffered saline +0.1% Triton X-100 (PBS-Tx). Coverslips were next incubated with a primary antibody recognizing α-tubulin (Sigma, St.Louis Mo.) for 40 minutes in a humidified chamber at 37° C. Coverslips were washed for 15 minutes in PBS-Tx followed by a 40 minutes incubation with a fluorescently labeled secondary antibody (Jackson Immunoresearch, West Grove, Pa.). The coverslips were again rinsed in PBS-Tx and incubated with 5 μM Toto-3 (Molecular Probes, Eugene Oreg.) for 20 minutes to label the DNA. Coverslips were immediately inverted onto slides in Vectashield (Vector Labs, Burlingame, […].) to prevent photobleaching, sealed with nail polish and stored at 4° C.
Slides were examined using a Bio-Rad MRC-1024 Laser Scanning Confocal Microscope mounted on a Nikon Eclipse E800 upright microscope with high numerical aperture objectives. Slides were examined to determine the percentage of cells in interphase vs. mitosis and representative images were taken. Digital data was processed using Lasersharp (Bio-Rad, Hercules, Calif.) and Photoshop (Adobe Systems, Mountain View, Calif.) software and printed on a Pictrography printer (Fuji Photo Elmsford, N.Y.)

Experiment [2] deals with breast cancer cell line BT-20. Put plainly: MTT cytotoxicity assay. The class given is cell-based, human. The conditions noted are these: BT-20, MTT, 48 hours; read-out: IC50 inhibition of proliferation. The protocol: (§1) Observations of cell division and development of the ZF embryos were carried out using a SMZ-10A stereo microscope (Nicon, Melville, N.Y.), once every 30 minutes within the first 3 hours of incubation and at 6, 12 and 24 hours, as well. […] The stereo microscope was fitted with a specially designed transparent heating tray in order to keep embryos at ST during observations. Pictures of the embryos were taken with a H-III Photomicrographic System (Nicon, Melville, N.Y.) using Ektachrome 64X film (Kodak, Rochester, N.Y.). Cytotoxicity MTF Assays The cytotoxicity of [VCp2(acac)](CF3SO3) against human cancer cell lines was performed as described previously (Ghosh et al, Clinc Canc Res, 6:1536, 2000) using the MTT (3-[4,5-dimethylthiazol-2-yl]-2,5-diphenyl tetrazolium bromide) assay (Boehringer Mannheim Corp., Indianapolis, Ind.). Briefly, exponentially growing tumor cells were seeded into a 96-well plate at a density of 2.5×10^4 cells/well and incubated [VCp2(acac)](CF3SO3) or 0.1% DMSO in PBS concentrations ranging from 0.1 to 250 μM. Following incubation with drug for 48 hours at 37° C., to each well, 10 μl of MTT (0.5 mg/ml final concentration) was added and the plates were incubated at 37° C. for 4 hours to allow MTT to form formazan crystals by reacting with metabolically active cells. The formazan crystals were solubilized overnight at 37° C. in a solution containing 10% SDS in 0.01 M HCl. The absorbance of each well was measured in a microplate reader (Labsystems) at 540 nm and a reference wavelength of 690 nm. The percent survival and the IC50 values were calculated using Graphpad Prism software version 2.0 (Graphpad Software, Inc., San Diego, Calif.), as described previously. Ghosh et al, Clinc Canc Res, 6:1536, 2000.

In experiment [3] the test system is breast cancer cell line MDA-MB-231. Description: MTT cytotoxicity assay. The class given is cell-based, human. The conditions noted are these: MDA-MB-231, MTT, 48 hours; read-out: IC50 inhibition of proliferation. On the procedure: as §1
For experiment [4], the system named is glioblastoma cell line U373. Description: MTT cytotoxicity assay. The conditions noted are these: 48 hours, read-out: IC50 inhibition of proliferation. The class given is cell-based, human. On the procedure:
as §1

The subject of experiment [5] is Zebra fish embryos. Description: Zebrafish embryo model system, incubation of dechorionated two-cell stage embryos with drug. It is filed as in vivo, Danio rerio. The protocol: ZF eggs were removed from their chorions by mild digestion in 1% Trypsin-EDTA (Sigma, St.Louis, Mo.) for 10 minutes at 28.5° C. (Standard temperature—ST), washed three times in “egg water” and twice in “embryonic medium” (EM), according to recommendations (Westerfield, The Zebrafish Book, Supra). The dechorionated two-cell stage cleaving eggs were transferred to the 24-well plastic cell culture plates (Costar, Cambridge, Mass.) filled with EM. Dechorionated embryos (10-12 per well) were exposed to the drugs at a constant ST for 0.5-24 hours. The final volume of the media in each well was 500 μL. The compound was tested at concentrations ranging from 10 μM to 4 mM. First dissolved in DMSO, it was then diluted serially with the incubation medium. The final concentration of DMSO in the wells was 1.2%. […]
(§2) Observations of cell division and development of the ZF embryos were carried out using a SMZ-10A stereo microscope (Nicon, Melville, N.Y.), once every 30 minutes within the first 3 hours of incubation and at 6, 12 and 24 hours, as well. […] The absorbance of each well was measured in a microplate reader (Labsystems) at 540 nm and a reference wavelength of 690 nm. The percent survival and the IC50 values were calculated using Graphpad Prism software version 2.0 (Graphpad Software, Inc., San Diego, Calif.), as described previously. […]

The test system of experiment [6] is two-cell stage ZF eggs. Description: Zebrafish embryo microinjection into cytoplasm of two-cell stage eggs. The class given is in vivo, Danio rerio. The protocol:
Microinjections were performed with the help of a SMZ-10A stereo microscope (Nicon, Melville, N.Y.) and transjector 5246 (Eppendorf Scientific Inc, Westbury, N.Y. 11590) at RT. The eggs in chorions were restrained in agar grooves filled with EM, and the drug containing solution was introduced into the cytoplasm of one of the blastomeres of the two-cell stage eggs through a micropipette with a splinted sharp tip of 2-3 μm in diameter. All microinjections were performed under visual control. Drugs for injection were dissolved in Hank's Balanced Salt Saline (Gibco, Rockville, Md.) with 10% DMSO. The volume of the solution injected into each blastomere was approximately […]. For every drug, 40-50 embryos were injected in 30 minutes of one series of experiment. After the treatment the embryos were transferred back to ST and studied as above.
as §2

In experiment [7] the test system is CAMs of growing chick embryos. Description: Chick embryo chorioallantoic membrane (CAM) assay, inhibition of angiogenesis. The class given is in vivo, chick (white Leghorn chicken). The conditions noted are these: for Avascular Zone: assessed 48 hours after implantation. The protocol:
Inhibition of embryonic angiogenesis was determined using a bioassay system involving CAMs of growing chick embryos, as previously described (Nguyen et al, Microvascular Research, 47:31, 1994; Auerbach et al, Developmental Biology, 41:391, 1974). Fertilized white Leghorn chicken eggs were received at day 3 of incubation from the University of Minnesota Poultry Research Center, St. Paul, Minn. The following procedures took place in a sterile laminar flow hood. The eggs were wiped down with 70% isoprpyl alcohol and allowed to air dry. The eggs were wiped with Betadine and placed in a horizontal position for approximately 5 minutes and allowed to dry. The eggs were cracked and placed into sterile 100×20 mm^2 Petri dishes (Fischer, Itasca, Ill.) and transferred to a 37° C. humidified incubator (1.5% CO2). […] Louis, Mo.) were prepared by pipetting 10 μl of the compound, using a positive displacement pipette, onto sterile Teflon™ PFA Petri dishes (VWR, Chicago, Ill.) and drying in a vacuum desiccator at ambient temperature. […] The eggs were returned to a humidified 1.5% CO2/37° C. incubator.
Inhibition of angiogenesis was assessed 48 hours after implantation by measuring the avascular one in the CAM beneath the pellet, followed by photographic documentation of the CAM. Pellets containing 200 μg suramin (Calbiochem, La Jolla, Calif.) served as a positive control. The methylcellulose disk alone with no added compounds served as a negative control. Significant inhibition of angiogenesis was defined as the presence of an avascular zone of at least 3 mm in diameter around the methylcellulose disk.

On to `CC(=O)C=C(C)[O-].O=S(=O)([O-])C(F)(F)F.[V+4].c1cc[cH-]c1.c1cc[cH-]c1` [VDacac, Vanadocene acetylacetonato monotriflate], for which the mitotic spindle organization result in experiment [1] is recorded as “aberrant monopolar mitotic structures”. Also, the IC50 in experiment [2] was found to be 25.1 µM; in experiment [3], 9.6 µM; in experiment [4], 35.7 µM. Further, the “effect on cell division / embryonic development” value in experiment [5] (0.6 mM in embryonic medium, 28.5° C.) was “cell division block at the 8-16 cell stage of embryonic development followed by total cell fusion and developmental arrest”; in experiment [5] (concentrations lower than 0.6 mM, within 120 minutes of incubation), “cell proliferation continued but was abnormal”. Further, the “anti-proliferative effect after microinjection” value was “formation of a blastocoel-like cavity in the blastoderm of late blastulae and early gastrulae and disrupted further gastrulation” in experiment [6] (1 pmol/embryo microinjected); “slowed down cell division and resulted in deterioration of the cell localization pattern and developmental block” in experiment [6] (40 pmols/cell microinjected). Also, the results for the “Avascular Zone” value in experiment [7] (VDacac 1 (mg) pellet on CAM), in experiment [7] (VDacac 10 (mg) pellet on CAM) and in experiment [7] (VDacac 100 (mg) pellet on CAM) were 7.0 ± 1.5 mm^2, 38.4 ± 16.6 mm^2 and 92.4 ± 24.9 mm^2, respectively. The “effect on angiogenesis in CAM” value in experiment [7] (methylcellulose disks, doses ranging from 1 μg to 100 μg, 4-6 day old chick embryos) was “rapidly inhibited angiogenesis and produced within one hour a large avascular zone”.
